Measurements as given in US6913878B2, “Method of detecting DNA single strand breaks” (The University of North Carolina at Chapel Hill, priority 2003, dated 2005).

Tests used:
[1] = tested on: EM9-XH5 cells (CHO EM9 cells expressing wild-type human XRCC1); assay: Intracellular NAD(P)H assay with water-soluble tetrazolium salt WST-8 (CCK-8); assay type: cell-based, Chinese hamster
Method: (§1) XRCC1-proficient and -deficient CHO cells (Taylor, et al. (2002) Mol. Cell. Biol. 22:2556-2563) were cultured as monolayers in alpha-minimal essential medium (INVITROGEN™, Carlsbad, Calif.) supplemented with 10% fetal bovine serum (Sigma-Aldrich, St. Louis, Mo.), 100 μg/mL penicillin, and 100 μg/mL streptomycin. Immortalized mouse embryonic fibroblasts derived from PART-1^+/+ and PARP-1^−/− were maintained in Dulbecco's modified Eagle's medium, 4.5 g/Liter glucose medium (INVITROGEN™, Carlsbad, Calif.) supplemented with 10% fetal bovine serum and 0.5% gentamicin (Schreiber, et al. (2002) J. Biol. Chem. 277:23028-23036). Human lymphoblastoid cells (GM15030, GM15061, GM15237, GM15268, GM15339, GM15349, GM15365, and GM15380; Coriell Cell Repositories, Camden, N.J.) were grown in RPMI 1640 medium (INVITROGEN™, Carlsbad, Calif.) supplemented with 15% fetal bovine serum (Sigma-Aldrich, St. Louis, Mo.), 100 μg/mL penicillin, and 100 μg/mL streptomycin. The cells were maintained in a humidified atmosphere of 5% CO2 and 95% air at 37° C.
(§2) A water-soluble tetrazolium salt was used to measure the amount of intracellular NAD(P)H through the reduction to a formazan dye. The total amount of NAD(P)H within viable cells in the medium was determined periodically by a spectrophotometer. Cells were seeded into 96-well plates (CHO cells and mouse fibroblasts: 5×10^3 cells/well; lymphoblastoid cells: 15×10^3 cells/well) and were cultured in 100 μL of medium with fetal bovine serum and antibiotics as described. After a 30-minute incubation, cells were treated with MMS at indicated concentrations and 1/10 volume of CCK-8 solution (Dojindo Molecular Technology, Gaithersburg, Md.) which consisted of a water-soluble 2-(2-methoxy-4-nitrophenyl)-3-(4-nitrophenyl)-5-(2,4-disulfophenyl)-2H-tetrazolium monosodium salt (WST-8; 5 mM) and 1-Methoxy-5-methylphenazinium methylsulfate (1-Methoyx PMS; 0.2 mM) as an electron mediator. Cells in each well were further cultured for up to 4 hours. WST-8 produced a water-soluble yellow-colored formazan dye through its bioreduction either in the presence of an electron carrier, such as 1-Methoxy PMS, Diaphorase, a flavoenzyme, or directly by NAD(P)H. Therefore, the reduction of tetrazolium salts predominantly depends on the amount of intracellular NAD(P)H. The amount of formazan dye produced by the living cells in the medium was determined approximately every 30 minutes by a spectrophotometer and compared to the values of the control. Absorbance was recorded in a 96-well plate reader at 450 nm with a 650 nm reference filter. A medium blank was prepared with only medium and CCK-8 reaction solution. Decreases in the intracellular NAD(P)H were assessed by comparing the absorbance of a well containing cells treated with MMS against that of a well with cells treated with phosphate-buffered saline (PBS) only.
(§3) XRCC1 functions as a scaffold for interaction with other base excision repair-associated proteins including human AP endonuclease (APE1), DNA Pol-β, DNA Ligase III, Polynucleotide Kinase (PNK), and PARP-1 (Caldecott, et al. (1996) Nucl. Acids Res. 24:4387-4394; Whitehouse, et al. (2001) Cell 104:1-11; Kubota, et al. (1996) EMBO J. 15:6662-6670; Caldecott, et al. (1994) Mol. Cell. Biol. 14:68-76; Caldecott, et al. (1995) Nucl. Acids Res. 23:4836-4843) and is required for efficient single strand break repair and genetic stability in mammalian cells. Rodent cells lacking XRCC1 are hypersensitive to DNA damaging agents (Whitehouse, et al. (2001) Cell 104:1-11; Kubota, et al. (1996) EMBO J. 15:6662-6670; Caldecott, et al. (1994) Mol. Cell. Biol. 14:68-76). […]

[2] = tested on: EM9-V cells (XRCC1-deficient CHO EM9 cells expressing empty vector); assay: as above; assay type: cell-based, Chinese hamster
Method: as §1, §2, §3

EM9-V cells [3] = assay: Intracellular NAD(P)H assay using XTT or MTS; assay type: cell-based, Chinese hamster
Method: (§4) XTT^1) (2,3-bis[2-Methoxy-4-nitro-5-sulfophenyl]-2H-tetrazolium-5-carboxy-anilide inner salt) and MTS^2) (3-(4,5-dimethylthiazol-2-yl)-5-(3-carboxynethoxyphenyl)-2-(4-sulfophenyl)-2H-tetrazolium, inner salt), water-soluble tetrazolium salts, were used to measure the amount of intracellular NAD(P)H through the reduction to a water-soluble formazan dye. EM9-V and XH5 cells were seeded into 96-well plates and were cultured in 100 μL of medium with fetal bovine serum and antibiotics as described (10,000 cells per well). After a 30-minute incubation, cells were treated with DMS (dimethylsulfate) at indicated concentrations and 1/10 volume of either XTT with an electron coupling agents such as phenazine methosulfate (Sigma) or MTS with phenazine methosulfate (Promega). Cells in each well were further cultured for up to 4 hours. Either XTT or MTS produced a water-soluble yellow-colored formazan dye and the absorbance was recorded in a 96-well plate reader at 450 nm with a 650 nm reference filter.
(§5) These cells were exposed to DMS at different concentrations for 2.5 or 4 hours. […] In addition, CHO cells were co-exposed to DMS and PARP inhibitor, 3-aminobenzamide (10 mM) and were applied 1 to 2 hours prior to the DMS treatment and kept in the medium during DMS exposure until the cells were analyzed.

EM9-XH5 cells = assay: Intracellular NAD(P)H assay using XTT or MTS; assay type: cell-based, Chinese hamster; conditions: DMS 4 hours (XTT) or 2.5 hours (MTS) (FIG. 7A, B)
Method: as §4, §5

[4] = tested on: EM9-V and EM9-XH5 CHO cells; assay: Trypan blue dye-exclusion assay (cell death); assay type: cell-based, Chinese hamster; conditions: MMS 0, 0.75, 1.5 mM for 1 and 4 hours; any concentration
Method: Cell death was determined with trypan blue staining. Cells were treated with MMS at 0, 0.75, and 1.5 mM for 1 and 4 hours. After trypsinization, cells were stained using a standard trypan blue dye-exclusion assay.

EM9-V cells [5] = assay type: cell-based, Chinese hamster; conditions: immediately after 1 hour MMS treatment (FIG. 5D)
Method: A direct comparison was conducted between the method of the invention measuring NAD(P)H and the Comet assay for the detection of single strand breaks. Slides for the Comet assay were prepared using well-known methods (Tennant, et al. (2001) Mutat. Res. 493:1-10). Briefly, slides were dipped into agarose and dried at 60° C. Low melting point agarose (0.5%) was prepared and held at 42° C. Cell suspensions (1×10^4 cells/10 μL) were mixed with 190 μL low melting point agarose. Ninety μL of this suspension was pipetted onto each of two slides and covered with a coverglass. Each slides was placed on ice for 5 minutes, the coverglass was removed, 90 μL of low melting point agarose was pipetted onto each slide, a coverglass was reapplied, and slides were returned to the ice. After 5 minutes, the coverglass was removed and the slides were placed in lysis buffer (pH 11) containing 2.5 M NaCl, 100 mM EDTA-2Na, 10 mM Tris, 1% Na Sarcosinate, 1% TRITON® X-100 and 10% dimethylsulfoxide for 20 minutes. Following lysis, the slides were placed in denaturation buffer (i.e., electrophoresis buffer; 300 mM NaOH, 1 mM EDTA, pH 13). […]
Slides were stained using 35 μL of SYBR GREEN-1™ (MOLECULAR PROBES™, Eugene, Oreg.)(10× in Tris-EDTA buffer pH 8.0) and a coverglass was applied. […] Fifty cells from each of two slides were analyzed by a independent scorer who had no knowledge of the treatment. […]

[6] = tested on: PARP-1-/- immortalized embryonic fibroblasts; assay: Intracellular NAD(P)H assay (WST-8) in PARP-1-/- fibroblasts; assay type: cell-based, mouse; conditions: PARP-1-/- cells, MMS 4 hours, compared with PARP-1+/+ cells (FIG. 4B)
Method: (§6) XRCC1-proficient and -deficient CHO cells (Taylor, et al. (2002) Mol. Cell. Biol. 22:2556-2563) were cultured as monolayers in alpha-minimal essential medium (INVITROGEN™, Carlsbad, Calif.) supplemented with 10% fetal bovine serum (Sigma-Aldrich, St. Louis, Mo.), 100 μg/mL penicillin, and 100 μg/mL streptomycin. Immortalized mouse embryonic fibroblasts derived from PART-1^+/+ and PARP-1^−/− were maintained in Dulbecco's modified Eagle's medium, 4.5 g/Liter glucose medium (INVITROGEN™, Carlsbad, Calif.) supplemented with 10% fetal bovine serum and 0.5% gentamicin (Schreiber, et al. (2002) J. Biol. Chem. 277:23028-23036). […]
(§7) A water-soluble tetrazolium salt was used to measure the amount of intracellular NAD(P)H through the reduction to a formazan dye. The total amount of NAD(P)H within viable cells in the medium was determined periodically by a spectrophotometer. […] WST-8 produced a water-soluble yellow-colored formazan dye through its bioreduction either in the presence of an electron carrier, such as 1-Methoxy PMS, Diaphorase, a flavoenzyme, or directly by NAD(P)H. Therefore, the reduction of tetrazolium salts predominantly depends on the amount of intracellular NAD(P)H. The amount of formazan dye produced by the living cells in the medium was determined approximately every 30 minutes by a spectrophotometer and compared to the values of the control. […]

[7] = tested on: PARP-1+/+ immortalized embryonic fibroblasts; assay: Intracellular NAD(P)H assay (WST-8) in PARP-1+/+ fibroblasts; assay type: cell-based, mouse; conditions: PARP-1+/+ cells, MMS 4 hours (FIG. 4A)
Method: as §6, §7

[8] = tested on: Human lymphoblastoid cells (GM15030, GM15061, GM15237, GM15268, GM15339, GM15349, GM15365, GM15380); assay: Intracellular NAD(P)H assay (WST-8) in lymphoblastoid cells; assay type: cell-based; conditions: eight healthy individuals, MMS 4 hours (FIG. 6A)
Method: as §6, §7

O=C1NCCc2c(OCCCCN3CCCCC3)cccc21 [DPQ, 3,4-dihydro-5-[4-(1-piperidinyl)butoxy]-1(2H)-isoquinolinone]
block of MMS-induced decrease in intracellular NAD(P)H ([1]; DPQ 90 μM applied 1 to 2 hours before and during MMS, 4 hours (FIG. 3B)): almost completely blocked
block of MMS-induced decrease in intracellular NAD(P)H ([2]; EM9-V cells, DPQ 90 μM applied 1 to 2 hours before and during MMS, 4 hours (FIG. 3B)): almost completely blocked

COS(=O)(=O)OC [DMS, dimethylsulfate]
intracellular NAD(P)H significantly reduced by treatment with DMS (EM9-V cells [3]; DMS 4 hours (XTT) or 2.5 hours (MTS), dose-dependent (FIG. 7A, B)): significantly reduced
intracellular NAD(P)H significantly reduced by treatment with DMS (EM9-XH5 cells): not

COS(C)(=O)=O [MMS, methyl methanesulfonate]
intracellular NAD(P)H on treatment with MMS ([1]; MMS at different concentrations for 4 hours, dose-dependent (FIG. 2A)): significantly reduced
intracellular NAD(P)H on treatment with MMS ([2]; EM9-V cells, MMS at different concentrations for 4 hours, dose-dependent (FIG. 2A)): significantly reduced
lowest MMS concentration at which decrease in intracellular NAD(P)H was detected ([2]; EM9-V cells, at 1, 2 and 4 hours (FIG. 5A-C)): ~10 µM
earliest time at which reduction of NAD(P)H was detected during MMS exposure ([2]; EM9-V cells, real-time assay, read about every 30 minutes (FIG. 2B)): 30 min
time for ratio of NAD(P)H in EM9-V versus EM9-XH5 cells to reach a plateau ([2]; as a function of exposure time with MMS (FIG. 2C)): ≤ 1 h
cell death (trypan blue exclusion) during MMS treatment [4]: no major cell death
MMS concentration at which increase in tail moment was detected (Comet assay) (EM9-V cells [5]): ~50 µM
NAD(P)H on exposure to MMS [6]: more resistant to the decrease in NAD(P)H
NAD(P)H on exposure to MMS [7]: reduced NAD(P)H
sensitivity to MMS (NAD(P)H depletion) among lymphoblastoid cell lines [8]: wide variation in the sensitivity

NC(=O)c1cccc(N)c1 [3-AB, 3-aminobenzamide]
block of MMS-induced decrease in intracellular NAD(P)H ([1]; 3-AB 10 mM applied 1 to 2 hours before and during MMS, 4 hours (FIG. 3A)): almost completely blocked
block of MMS-induced decrease in intracellular NAD(P)H ([2]; EM9-V cells, 3-AB 10 mM applied 1 to 2 hours before and during MMS, 4 hours (FIG. 3A)): almost completely blocked
protection from reduction in NAD(P)H upon exposure to MMS ([7]; 3-AB 10 mM): protected
block of DMS-induced decrease in intracellular NAD(P)H (EM9-V cells [3]; 3-AB 10 mM applied 1 to 2 hours before and during DMS, XTT 4 hours or MTS 2.5 hours (FIG. 7A, B)): completely blocked
